Assay [1] relates to OPM-2 human multiple myeloma cell line. Kind of assay: Cell Viability Assay (OPM-2 10 FBS). Format: cell-based. The note with it: OPM-2 cells, CellTiter-Glo. On the procedure:
Cell Viability Assay (OPM-2 10 FBS)
Cells were seeded into 384-well plates at 3000 cells/well density in complete growth medium containing 10% FBS, and incubated for 16 h with serially diluted test compounds in a 37° C. incubator with 5% CO2. Cell viability was tested using CellTiter-Glo® assay (Promega, Madison, WI) according to the manufacturer recommendations. Luminescence was determined using an EnVision® Multilabel plate reader 25 min after the addition of detection reagent. IC50 values were then calculated with Xlfit using a logistical 4-parameter fit model in GraphPad Prism (GraphPad Software, San Diego, CA) or in Genedata Screener® (Genedata, Basel, Switzerland).
A general note: Cellular ATP, detected with luciferase, serves as a proxy for viable cell number.

Assay [2] has as its target T1, Mcl-1/Bim interaction, recombinant human Mcl-1 (171-327) (Homo sapiens, UniProt Q07820).
T1 construct: made in house
Kind of assay: Cell free Mcl-1: Bim Affinity Assay (Mcl-1 HTRF). The format is binding. The procedure, abridged:
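Biotin-Bim(51-76) peptide, TR-FRET readout, overnight incubation; IC50 from duplicate competition curves, 4-parameter fit.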
A general note: Time-resolved FRET reads energy transfer from a long-lived donor to a nearby acceptor.

[3] abbreviates: Homo sapiens, OPM-2, 16 h, 16 h incubation.
The mark [4] stands for this setting: TR-FRET, 0.1 nM Mcl-1 (171-327), 0.05 nM biotin-Bim (51-76).
Where [5] appears, read: cell free Mcl-1:Bim TR-FRET, recombinant human Mcl-1 (171-327).
The mark [6] stands for this setting: Homo sapiens, OPM-2, 16 h, 16 h.

What is called IC50 is the point on the concentration scale where inhibition reaches its midpoint.

T1 sequence (Q07820 171-327): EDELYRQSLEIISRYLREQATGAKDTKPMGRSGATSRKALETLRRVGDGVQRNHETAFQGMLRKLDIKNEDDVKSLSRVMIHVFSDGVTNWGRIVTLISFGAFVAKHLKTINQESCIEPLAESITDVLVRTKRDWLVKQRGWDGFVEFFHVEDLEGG

As for `C[C@@H]1CC/C=C/[C@H](OCc2nnn(C)n2)[C@@H]2CC[C@H]2CN2C[C@@]3(CCCc4cc(Cl)ccc43)COc3ccc(cc32)C(=O)NS1(=O)=O` [Example 957, (1S,3′R,6′R,7′S,8′E,12′R)-6-chloro-12′-methyl-7′-((2-methyl-2H-tetrazol-5-yl)methoxy)-3,4-dihydro-2H,15′H-spiro[naphthalene-1,22′-[20]oxa[13]thia[1,14]diazatetracyclo[14.7.2.0^3,6.0^19,24]pentacosa [8,16,18,24]tetraen]-15′-one 13′,13′-dioxide], the values for the IC50 in assay [1] (setting [3]) and in assay [2] (setting [4]) were 308 nM and 0.442 nM, respectively. Take `CC[C@H]1C/C=C/[C@H](O)[C@@H]2CC[C@H]2CN2C[C@@]3(CCCc4cc(Cl)ccc43)COc3ccc(cc32)C(=O)NS(=O)(=O)N1` (single isomer, unassigned) [Example 686]: the IC50 in assay [1] (16 h) came out at 993 nM; in assay [2] (setting [5]), 0.597 nM.

Regarding `CO[C@H]1/C=C/CC[C@@H](CC(C)(C)OC)S(=O)(=O)NC(=O)c2ccc3c(c2)N(C[C@@H]2CC[C@H]21)C[C@@]1(CCCc2cc(Cl)ccc21)CO3` (single isomer, unassigned) [Example 615], the results for the IC50 in assay [1] (16 h) and in assay [2] (setting [5]) were 643 nM and 0.696 nM, respectively. Take `C[C@H]1[C@H](C)CC[C@H](O)[C@@H]2CC[C@H]2CN2C[C@@]3(CCCc4cc(Cl)ccc43)COc3ccc(cc32)C(=O)NS(=O)(=O)[C@@H]1C` [Example 1046, (1S,3′R,6′R,7′S,10′R,11′S,12′R)-6-chloro-7′-hydroxy-10′,11′,12′-trimethyl-3,4-dihydro-2H,15′H-spiro[naphthalene-1,22′-[20]oxa[13]thia[1,14]diazatetracyclo[14.7.2.0^3,6.0^19,24]pentacosa [16,18,24]trien]-15′-one 13′,13′-dioxide]: the IC50 in assay [1] (setting [3]) is 2520 nM; in assay [2] (setting [4]), 0.785 nM. Regarding `COCCO[C@H]1/C=C/C[C@H]2C[C@@H]2S(=O)(=O)NC(=O)c2ccc3c(c2)N(C[C@@H]2CC[C@H]21)C[C@@]1(CCCc2cc(Cl)ccc21)CO3` (single isomer, unassigned) [Example 805], the figures for the half-inhibitory concentration (IC50) in assay [1] (16 h) and in assay [2] (setting [5]) were 718 nM and 1.06 nM, respectively. As to `CC(C)(C)S(=O)(=O)CC[C@H]1CC/C=C/[C@H](O)[C@@H]2CC[C@H]2CN2C[C@@]3(CCCc4cc(Cl)ccc43)COc3ccc(cc32)C(=O)NS1(=O)=O` (single isomer, unassigned) [Example 155], the IC50 in assay [1] (16 h) came out at 11600 nM; in assay [2] (setting [4]), 0.846 nM. With `O=C1NS(=O)(=O)C[C@@H](CO)C/C=C/[C@H](O)[C@@H]2CC[C@H]2CN2C[C@@]3(CCCc4cc(Cl)ccc43)COc3ccc1cc32` [Example 1086, (1S,3′R,6′R,7′S,8′E,11′R)-6-chloro-7′-hydroxy-11′-(hydroxymethyl)-3,4-dihydro-2H,15′H-spiro [naphthalene-1,22′-[20]oxa[13]thia[1,14]diazatetracyclo[14.7.2.0^3,6.0^19,24]pentacosa [8,16,18,24]tetraen]-15′-one 13′,13′-dioxide], the IC50 was 8650 nM in assay [1] (setting [3]) and 0.421 nM in assay [2] (setting [4]). For `CO[C@H]1/C=C/C[C@@H]2CN(C(C)=O)C[C@H]2S(=O)(=O)NC(=O)c2ccc3c(c2)N(C[C@@H]2CC[C@H]21)C[C@@]1(CCCc2cc(Cl)ccc21)CO3` (single isomer, unassigned) [Example 340], the IC50 in assay [1] (16 h) worked out at 941 nM; in assay [2] (setting [4]), 0.19 nM. `O=C1NS(=O)(=O)CCC[C@]2(O)CCO[C@H](C2)[C@@H]2CC[C@H]2CN2C[C@@]3(CCCc4cc(Cl)ccc43)COc3ccc1cc32` (single isomer, unassigned) [Example 901]: the IC50 in assay [1] (16 h) stood at 5500 nM; in assay [2] (setting [5]) it was 0.568 nM. As to `C[C@H]1C/C=C/[C@H](OCCN2CCOCC2)[C@@H]2CC[C@H]2CN2C[C@@]3(CCCc4cc(Cl)ccc43)COc3ccc(cc32)C(=O)NS(=O)(=O)N1` [Example 67, (1S,3′R,6′R,7′S,8′E,11′S)-6-chloro-11′-methyl-7′-(2-(4-morpholinyl)ethoxy)-3,4-dihydro-2H,15′H-spiro[naphthalene-1,22′-[20]oxa[13]thia[1,12,14]triazatetracyclo[14.7.2.0^3,6.0^19,24]pentacosa[8,16,18,24]tetraen]-15′-one 13′,13′-dioxide], the IC50 was 450 nM in assay [1] (setting [6]) and 1.51 nM in assay [2] (setting [4]). Take `COC[C@@H]1C[C@H](C)/C=C/[C@H](O)[C@@H]2CC[C@H]2CN2C[C@@]3(CCCc4cc(Cl)ccc43)COc3ccc(cc32)C(=O)NS1(=O)=O` (single isomer, unassigned) [Example 472]: the values for the 50% inhibitory concentration (IC50) in assay [1] (16 h) and in assay [2] (setting [5]) were 206 nM and 0.27 nM, respectively.

`CC[C@@H]1CCCCC(=O)[C@@H]2CC[C@H]2CN2C[C@@]3(CCCc4cc(Cl)ccc43)COc3ccc(cc32)C(=O)NS1(=O)=O` [Example 886, (1S,3′R,6′R,12′R)-6-chloro-12′-ethyl-3,4-dihydro-2H,7′H,15′H-spiro[naphthalene-1,22′-[20]oxa[13]thia[1,14]diazatetracyclo[14.7.2.0^3,6.0^19,24]pentacosa [16,18,24]triene]-7′,15′-dione 13′,13′-dioxide] had an IC50 in assay [1] (setting [6]) of 12300 nM. Take `CC[C@@H]1CC/C=C/[C@H](OCC(=O)N2CCOCC2)[C@@H]2CC[C@H]2CN2C[C@@]3(CCCc4cc(Cl)ccc43)COc3ccc(cc32)C(=O)NS1(=O)=O` [Example 979, (1S,3′R,6′R,7′S,8′E,12′R)-6-chloro-12′-ethyl-7′-(2-(4-morpholinyl)-2-oxoethoxy)-3,4-dihydro-2H,15′H-spiro[naphthalene-1,22′-[20]oxa[13]thia[1,14]diazatetracyclo[14.7.2.0^3,6.0^19,24]pentacosa [8,16,18,24]tetraen]-15′-one 13′,13′-dioxide]: the IC50 in assay [1] (setting [3]) came out at 16900 nM. In assay [1] (Homo sapiens, 16 h), `CO[C@H]1C/C=C/[C@H](C)[C@@H](C)S(=O)(=O)NC(=O)c2ccc3c(c2)N(C[C@@H]2CC[C@H]21)C[C@@]1(CCCc2cc(Cl)ccc21)CO3` [Example 17, (1S,3′R,6′R,7′S,9′E,11′S,12′R)-6-chloro-7′-methoxy-11′,12′-dimethyl-3,4-dihydro-2H,15′H-spiro[naphthalene-1,22′-[20]oxa[13]thia[1,14]diazatetracyclo[14.7.2.0^3,6.0^19,24]pentacosa[9,16,18,24]tetraen]-15′-one 13′,13′-dioxide] gave an IC50 of 7920 nM.

For the molecule `CC[C@@H]1CC/C=C/[C@H](OCCC(=O)OC)[C@@H]2CC[C@H]2CN2C[C@@]3(CCCc4cc(Cl)ccc43)COc3ccc(cc32)C(=O)NS1(=O)=O` [Example 1007], the IC50 in assay [1] (setting [3]) stood at 74 nM.

For `C/C=C/C1CC(=O)[C@@H]2CC[C@H]2CN2C[C@@]3(CCCc4cc(Cl)ccc43)COc3ccc(cc32)C(=O)NS(=O)(=O)[C@H](C)[C@@H](C)C1` (stereo in doubt) [Example 353, (1S,3′R,6′R,9′S,11′S,12′R)-6-chloro-11′,12′-dimethyl-9′-((1E)-1-propen-1-yl)-3,4-dihydro-2H,7′H,15′H-spiro[naphthalene-1,22′-[20]oxa[13]thia[1,14]diazatetracyclo[14.7.2.0^3,6.0^19,24]pentacosa [16,18,24]triene]-7′,15′-dione 13′,13′-dioxide], in assay [2] (setting [4]), the IC50 turned out to be 9.09 nM.

Turning to `O=C1NS(=O)(=O)CC/C=C\C[C@H](O)[C@@H]2CC[C@H]2CN2C[C@@]3(CCCc4ccccc43)COc3ccc1cc32` [Example 807, (1S,3′R,6′R,7′S,9′Z)-7′-hydroxy-3,4-dihydro-2H,15′H-spiro[naphthalene-1,22′-[20]oxa[13]thia [1,14]diazatetracyclo[14.7.2.0^3,6.0^19,24]pentacosa[9,16,18,24]tetraen]-15′-one 13′,13′-dioxide], the IC50 in assay [2] (setting [5]) turned out to be 42.3 nM.
